“And” between values parts separate entries of the source, which are not always exact repeats. Identical values can stand only once. Inconclusive results and toxic doses are left out. No stated cut-off is given here; in the data, active means T/C of 150% or more; inactive means T/C below 125%.
System: L1210 leukemia ip in BDF1 mice, survival T/C
Experiment: NCI In Vivo Anticancer Drug Screen. Data for tumor model L1210 Leukemia (intraperitoneal) in B6D2F1 (BDF1) mice
Conditions: endpoint: mean survival time, higher = longer survival
Method in brief: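 Each compound was tested against a transplantable tumor grown in mice. The endpoint was survival, with treated animals benchmarked against vehicle controls as a simple ratio.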

[1] = dose: 100.0 mg/kg/injection, schedule: Q04DX003 (ip), vehicle: Klucel (hydroxypropylcellulose) (HPC)
[2] = dose: 200.0 mg/kg/injection, schedule: Q04DX003 (ip), vehicle: Klucel (hydroxypropylcellulose) (HPC)
[3] = dose: 400.0 mg/kg/injection, schedule: Q04DX003 (ip), vehicle: Klucel (hydroxypropylcellulose) (HPC)
[4] = dose: 100.0 mg/kg/injection, schedule: Q01DX001 (ip), vehicle: saline
[5] = dose: 200.0 mg/kg/injection, schedule: Q01DX001 (ip), vehicle: saline
[6] = dose: 100.0 mg/kg/injection, schedule: Q01DX009 (ip), vehicle: Klucel (hydroxypropylcellulose) (HPC)
[7] = dose: 200.0 mg/kg/injection, schedule: Q01DX009 (ip), vehicle: Klucel (hydroxypropylcellulose) (HPC)
[8] = dose: 400.0 mg/kg/injection, schedule: Q01DX009 (ip), vehicle: Klucel (hydroxypropylcellulose) (HPC)
[9] = dose: 100.0 mg/kg/injection, schedule: Q04DX003 (ip), vehicle: saline with Tween-80
[10] = dose: 50.0 mg/kg/injection, schedule: Q01DX009 (ip), vehicle: saline with Tween-80
[11] = dose: 100.0 mg/kg/injection, schedule: Q01DX009 (ip), vehicle: saline with Tween-80
[12] = dose: 200.0 mg/kg/injection, schedule: Q01DX009 (ip), vehicle: saline with Tween-80

Measured: T/C

O=C(O)[C@H]1CCCC[C@H]1C(=O)O
inactive: dose: 50.0 mg/kg/injection, schedule: Q04DX003 (ip), vehicle: Klucel (hydroxypropylcellulose) (HPC) 98 % of control | [1] 95 % of control | [2] 103 % of control and 106 % of control | [3] 100 % of control

ONc1ncnc2nc[nH]c12
inactive: dose: 7.5 mg/kg/injection, schedule: Q01DX009 (ip), vehicle: Klucel (hydroxypropylcellulose) (HPC) 121 % of control | dose: 15.0 mg/kg/injection, schedule: Q01DX009 (ip), vehicle: Klucel (hydroxypropylcellulose) (HPC) 119 % of control | dose: 30.0 mg/kg/injection, schedule: Q01DX009 (ip), vehicle: Klucel (hydroxypropylcellulose) (HPC) 117 % of control | dose: 50.0 mg/kg/injection, schedule: Q01DX009 (ip), vehicle: saline 114 % of control | dose: 60.0 mg/kg/injection, schedule: Q01DX009 (ip), vehicle: Klucel (hydroxypropylcellulose) (HPC) 121 % of control | [4] 110 % of control | [5] 112 % of control | dose: 200.0 mg/kg/injection, schedule: Q01DX009 (ip), vehicle: saline 114 % of control | dose: 400.0 mg/kg/injection, schedule: Q01DX001 (ip), vehicle: saline 114 % of control

CCCCCCCCCCCCCCCc1cc(=O)n(-c2cccc([N+](=O)[O-])c2)n1C
inactive: [1] 96 % of control | [2] 94 % of control | [3] 92 % of control

NC(=O)CNC(c1ccccc1)C(O)c1ccccc1 (configuration not stated)
inactive: [6] 96 % of control | dose: 100.0 mg/kg/injection, schedule: Q04DX002 (ip), vehicle: Klucel (hydroxypropylcellulose) (HPC) 91 % of control | [7] 98 % of control | dose: 200.0 mg/kg/injection, schedule: Q04DX002 (ip), vehicle: Klucel (hydroxypropylcellulose) (HPC) 102 % of control | [8] 93 % of control | dose: 400.0 mg/kg/injection, schedule: Q04DX002 (ip), vehicle: Klucel (hydroxypropylcellulose) (HPC) 102 % of control

Cc1cc(Cc2cc(C)c(O)c(C(C)(C)C)c2)cc(C(C)(C)C)c1O
inactive: dose: 50.0 mg/kg/injection, schedule: Q04DX002 (ip), vehicle: other 93 % of control | dose: 100.0 mg/kg/injection, schedule: Q04DX002 (ip), vehicle: other 87 % of control | dose: 200.0 mg/kg/injection, schedule: Q04DX002 (ip), vehicle: other 90 % of control

COc1cc(C=Nc2cc(Cl)c(OC)c(Cl)c2)ccc1N(CCCl)CCCl
inactive: dose: 26.0 mg/kg/injection, schedule: Q01DX001 (ip), vehicle: carboxymethylcellulose (CMC) 121 % of control | dose: 26.0 mg/kg/injection, schedule: Q01DX009 (ip), vehicle: carboxymethylcellulose (CMC) 120 % of control | dose: 29.0 mg/kg/injection, schedule: Q01DX001 (ip), vehicle: carboxymethylcellulose (CMC) 118 % of control | dose: 40.0 mg/kg/injection, schedule: Q01DX009 (ip), vehicle: carboxymethylcellulose (CMC) 94 % of control | dose: 44.0 mg/kg/injection, schedule: Q01DX001 (ip), vehicle: carboxymethylcellulose (CMC) 114 % of control | dose: 150.0 mg/kg/injection, schedule: Q01DX001 (ip), vehicle: carboxymethylcellulose (CMC) 121 % of control | dose: 225.0 mg/kg/injection, schedule: Q01DX001 (ip), vehicle: carboxymethylcellulose (CMC) 122 % of control | dose: 300.0 mg/kg/injection, schedule: Q01DX001 (ip), vehicle: carboxymethylcellulose (CMC) 122 % of control

COC(=O)/C=C(\C)Oc1c(Cl)c(Cl)c(Cl)c(Cl)c1Cl
inactive: dose: 100.0 mg/kg/injection, schedule: Q01DX009 (ip), vehicle: saline sonified 96 % of control | dose: 200.0 mg/kg/injection, schedule: Q01DX009 (ip), vehicle: saline sonified 100 % of control | dose: 400.0 mg/kg/injection, schedule: Q01DX009 (ip), vehicle: saline sonified 100 % of control

C/C(=N/N)c1ccc(Br)cc1
inactive: dose: 3.7 mg/kg/injection, schedule: Q01DX009 (ip), vehicle: saline 107 % of control | dose: 5.0 mg/kg/injection, schedule: Q01DX001 (ip), vehicle: saline 94 % of control | dose: 7.5 mg/kg/injection, schedule: Q01DX009 (ip), vehicle: saline 119 % of control | dose: 10.0 mg/kg/injection, schedule: Q01DX001 (ip), vehicle: saline 97 % of control | dose: 20.0 mg/kg/injection, schedule: Q01DX001 (ip), vehicle: saline 113 % of control | dose: 25.0 mg/kg/injection, schedule: Q04DX003 (ip), vehicle: saline with Tween-80 105 % of control | dose: 40.0 mg/kg/injection, schedule: Q01DX001 (ip), vehicle: saline 122 % of control | dose: 50.0 mg/kg/injection, schedule: Q04DX003 (ip), vehicle: saline with Tween-80 110 % of control | dose: 80.0 mg/kg/injection, schedule: Q01DX001 (ip), vehicle: saline 105 % of control | [9] 93 % of control

CCCCN(CCCC)C(=O)C1C=C2c3cccc4[nH]cc(c34)CC2N(C#N)C1 (configuration not stated)
inactive: dose: 25.0 mg/kg/injection, schedule: Q01DX009 (ip), vehicle: saline with Tween-80 97 % of control | [10] 91 % of control | [11] 94 % of control | [9] 101 % of control | [12] 87 % of control | dose: 200.0 mg/kg/injection, schedule: Q04DX003 (ip), vehicle: saline with Tween-80 100 % of control | dose: 400.0 mg/kg/injection, schedule: Q04DX003 (ip), vehicle: saline with Tween-80 96 % of control

CC1CCCC(Oc2nc3c(c(=O)n(C)c(=O)n3C)n2C)C1 (configuration not stated)
inactive: dose: 50.0 mg/kg/injection, schedule: Q01DX001 (ip), vehicle: other 93 % of control | dose: 100.0 mg/kg/injection, schedule: Q01DX001 (ip), vehicle: other 93 % of control | dose: 200.0 mg/kg/injection, schedule: Q01DX001 (ip), vehicle: other 88 % of control | dose: 400.0 mg/kg/injection, schedule: Q01DX001 (ip), vehicle: other 95 % of control

OC1CCC(O)C2CCC1S2 (configuration not stated)
inactive: dose: 100.0 mg/kg/injection, schedule: Q01DX001 (ip), vehicle: steriod suspending solution 87 % of control | dose: 200.0 mg/kg/injection, schedule: Q01DX001 (ip), vehicle: steriod suspending solution 92 % of control | dose: 400.0 mg/kg/injection, schedule: Q01DX001 (ip), vehicle: steriod suspending solution 103 % of control

O=C(CCCBr)Nc1ccc2ccccc2c1
inactive: [10] 98 % of control | [11] 95 % of control | [12] 95 % of control

CC(=O)CC(C)(C)NC(=S)NN
inactive: [1] 91 % of control | [2] 101 % of control | [3] 91 % of control

CCOc1ccccc1NC(=O)Nc1ccccc1OC
inactive: [6] 103 % of control | [1] 103 % of control | [7] 98 % of control | [2] 96 % of control | [8] 98 % of control | [3] 100 % of control

O=[N+]([O-])c1ccccc1/C=N/Nc1nnc(N/N=C/c2ccccc2[N+](=O)[O-])c2ccccc12
inactive: dose: 50.0 mg/kg/injection, schedule: Q01DX001 (ip), vehicle: carboxymethylcellulose (CMC) 104 % of control | dose: 100.0 mg/kg/injection, schedule: Q01DX001 (ip), vehicle: carboxymethylcellulose (CMC) 93 % of control | dose: 200.0 mg/kg/injection, schedule: Q01DX001 (ip), vehicle: carboxymethylcellulose (CMC) 98 % of control | dose: 400.0 mg/kg/injection, schedule: Q01DX001 (ip), vehicle: carboxymethylcellulose (CMC) 98 % of control

COC(c1ccccc1)(c1ccccc1)C(C)O (configuration not stated)
inactive: [10] 87 % of control | [11] 97 % of control | [12] 103 % of control

Cn1c(=O)c2[nH]c(C3CCCC3)nc2n(C)c1=O
inactive: dose: 50.0 mg/kg/injection, schedule: Q01DX001 (ip), vehicle: saline 96 % of control | [4] 96 % of control | [5] 96 % of control
